Key:
[1] = Short term HFD mouse model: plasma and liver exposure; assay type: in vivo; conditions: HFD mice, 4 h after final dose
Protocol: (§1) The in vivo transcriptional regulation of several LXR target genes by LXR modulators was assessed in mice.
(§2) For this, C57BL/6J were purchased from Elevage Janvier (Rennes, France) at the age of 8 weeks. After an acclimation period of two weeks, animals were prefed on a high fat diet (HFD) (Ssniff Spezialdiäten GmbH, Germany, Surwit EF D12330 mod, Cat. No. E15771-34), with 60 kcal % from fat plus 1% (w/w) extra cholesterol (Sigma-Aldrich, St. Louis, MO) for 5 days. Animals were maintained on this diet during treatment with LXR modulators. The test compounds were formulated in 0.5% hydroxypropylmethylcellulose (HPMC) and administered in three doses (from 1.5 to 20 mg/kg each) by oral gavage according to the following schedule: on day one, animals received treatment in the morning and the evening (ca. 17:00), on day two animals received the final treatment in the morning after a 4 h fast and were sacrificed 4 h thereafter. Animal work was conducted according to the national guidelines for animal care in Germany.
Upon termination, liver was collected, dipped in ice cold PBS for 30 seconds and cut into appropriate pieces. Pieces were snap frozen in liquid nitrogen and stored at −80° C. For the clinical chemistry analysis from plasma, alanine aminotransferase (ALT, IU/mL), cholesterol (CHOL, mg/dL) and triglycerides (TG, mg/dL) were determined using a fully-automated bench top analyzer (Respons®910, DiaSys Greiner GmbH, Flacht, Germany) with system kits provided by the manufacturer.

[2] = tested on: LXR target genes (Scd1, Fas, Srebp1) in liver; test: Short term HFD mouse model: gene expression in liver tissue; assay type: in vivo; conditions: HFD mice, expression normalized to Tbp; for response vs control in vivo at 10 mg/kg / response vs control in vivo at 20 mg/kg: Mus musculus, 4 h, read-out: Scd1 suppresion compared to vehicle
Protocol: as §1, §2
Analysis of gene expression in liver tissue. To obtain total RNA from frozen liver tissue, samples (25 mg liver tissue) were first homogenized with RLA buffer (4M guanidin thiocyanate, 10 mM Tris, 0.97% w:v β-mercapto-ethanol). RNA was prepared using a SV 96 total RNA Isolation system (Promega, Madison, Wisconsin, USA) following the manufacturer's instructions. cDNAs were synthesized from 0.8-1 μg of total RNA using All-in-One cDNA Supermix reverse transcriptase (Absource Diagnostics, Munich, Germany). Quantitative PCR was performed and analyzed using Prime time Gene expression master mix (Integrated DNA Technologies, Coralville, Iowa, USA) and a 384-format ABI 7900HT Sequence Detection System (Applied Biosystems, Foster City, USA). The expression of the following genes was analysed: Stearoyl-CoA desaturase1 (Scd1), fatty acid synthase (Fas) and sterol regulatory element-binding protein1 (Srebp1). Specific primer and probe sequences (commercially available) are listed in Table 3. qPCR was conducted at 95° C. for 3 min, followed by 40 cycles of 95° C. for 15 s and 60° C. for 30 s. All samples were run in duplicates from the same RT-reaction. Gene expression was expressed in arbitrary units and normalized relative to the mRNA of the housekeeping gene TATA box binding protein (Tbp) using the comparative Ct method.

[3] = three oral doses of 10 mg/kg over two days
[4] = three oral doses of 20 mg/kg over two days

Compound: N#Cc1cccc(C#N)c1-c1c(-c2cccc(-c3ccc(C(=O)O)cc3Cl)c2)n(S(=O)(=O)C2CCC(F)(F)CC2)c2ccc(F)cc12 [11/63]
- liver exposure 4 h [1, 3]: C (1 μM to ≤10 μM)
- liver/plasma ratio 4 h [1, 3]: B (5 to ≤30)
- plasma exposure 4 h [1, 3]: D (<100 nM)
- Srebp1c suppr. compared to vehicle ([2]; three oral doses of 10 mg/kg): D (<0.3)
- response vs control in vivo at 10 mg/kg ([2]; three oral doses of 10 mg/kg): 30 to 60%

Compound: N#Cc1sccc1-c1c(-c2cccc(-c3ccc(C(=O)O)cc3Cl)c2)n(S(=O)(=O)c2ccc(C(F)(F)F)nc2)c2ccc(F)cc12 [11/16]
- liver exposure 4 h [1, 4]: C (1 μM to ≤10 μM)
- liver/plasma ratio 4 h [1, 4]: B (5 to ≤30)
- plasma exposure 4 h [1, 4]: C (100 nM to <300 nM)
- Fasn suppression compared to vehicle ([2]; three oral doses of 20 mg/kg): A (>0.9)
- Srebp1c suppr. compared to vehicle ([2]; three oral doses of 20 mg/kg): B (0.6 to ≤0.9)
- response vs control in vivo at 20 mg/kg ([2]; three oral doses of 20 mg/kg): 30 to 60%

Compound: Cc1ccc(S(=O)(=O)n2c(-c3cccc(-c4ccc(C(=O)O)cc4)c3)c(-c3ccsc3C#N)c3cc(F)ccc32)cc1 [5/3]
- liver exposure 4 h [1, 4]: C (1 μM to ≤10 μM)
- liver/plasma ratio 4 h [1, 4]: B (5 to ≤30)
- plasma exposure 4 h [1, 4]: D (<100 nM)
- Fasn suppression compared to vehicle ([2]; three oral doses of 20 mg/kg): D (<0.3)
- response vs control in vivo at 20 mg/kg ([2]; three oral doses of 20 mg/kg): 30 to 60%

Compound: Cc1ccc(S(=O)(=O)n2c(-c3cccc(-c4ccc(C(=O)O)cc4)c3)c(-c3ccsc3C#N)c3cc(F)ccc32)cc1C [23/2]
- liver exposure 4 h [1, 4]: A (<300 nM)
- liver/plasma ratio 4 h [1, 4]: A (<5)
- plasma exposure 4 h [1, 4]: C (100 nM to <300 nM)
- Fasn suppression compared to vehicle ([2]; three oral doses of 20 mg/kg): C (0.3 to ≤0.6)
- response vs control in vivo at 20 mg/kg ([2]; three oral doses of 20 mg/kg): < 30%

Compound: O=C(O)c1ccc(-c2cccc(-c3c(-c4c(Cl)cccc4Cl)c4cc(F)ccc4n3S(=O)(=O)c3ccc(C(F)F)cc3)c2)c(Cl)c1 [11/13]
- liver exposure 4 h [1, 4]: C (1 μM to ≤10 μM)
- liver/plasma ratio 4 h [1, 4]: A (<5)
- plasma exposure 4 h [1, 4]: A (>1 μM)
- Fasn suppression compared to vehicle ([2]; three oral doses of 20 mg/kg): C (0.3 to ≤0.6)
- response vs control in vivo at 20 mg/kg ([2]; three oral doses of 20 mg/kg): < 30%

Compound: O=C(O)c1ccc(-c2cccc(-c3c(-c4ccccc4C4COC4)c4cc(F)ccc4n3S(=O)(=O)c3ccc(C(F)F)cc3)c2)c(Cl)c1 [3/59]
- liver exposure 4 h [1, 4]: C (1 μM to ≤10 μM)
- liver/plasma ratio 4 h [1, 4]: B (5 to ≤30)
- plasma exposure 4 h [1, 4]: C (100 nM to <300 nM)
- Srebp1c suppr. compared to vehicle ([2]; three oral doses of 20 mg/kg): D (<0.3)
- response vs control in vivo at 20 mg/kg ([2]; three oral doses of 20 mg/kg): 30 to 60%

Compound: N#Cc1cccc(C#N)c1-c1c(-c2cccc(-c3ccc(C(=O)O)cc3Cl)c2)n(S(=O)(=O)c2ccc(C(F)F)cc2)c2ccc(F)cc12 [11/12]
- liver exposure 4 h [1, 4]: C (1 μM to ≤10 μM)
- liver/plasma ratio 4 h [1, 4]: C (30 to ≤100)
- plasma exposure 4 h [1, 4]: D (<100 nM)
- Fasn suppression compared to vehicle ([2]; three oral doses of 20 mg/kg): C (0.3 to ≤0.6)
- response vs control in vivo at 20 mg/kg ([2]; three oral doses of 20 mg/kg): < 30%

Compound: CS(=O)(=O)NC(=O)c1ccc(-c2cccc(-c3c(-c4c(C#N)cccc4C#N)c4cc(F)ccc4n3S(=O)(=O)c3ccc(C(F)F)cc3)c2)c(Cl)c1 [32/5]
- liver exposure 4 h [1, 3]: B (300 nM to ≤1 μM)
- liver/plasma ratio 4 h [1, 3]: B (5 to ≤30)
- plasma exposure 4 h [1, 3]: D (<100 nM)
- Srebp1c suppr. compared to vehicle ([2]; three oral doses of 10 mg/kg): C (0.3 to ≤0.6)
- response vs control in vivo at 10 mg/kg ([2]; three oral doses of 10 mg/kg): 30 to 60%

Compound: N#Cc1cccc(C#N)c1-c1c(-c2cccc(-c3ccc(C(=O)NCCS(=O)(=O)O)cc3Cl)c2)n(S(=O)(=O)c2ccc(C(F)F)cc2)c2ccc(F)cc12 [10/1]
- liver exposure 4 h [1, 3]: B (300 nM to ≤1 μM)
- liver/plasma ratio 4 h [1, 3]: C (30 to ≤100)
- plasma exposure 4 h [1, 3]: D (<100 nM)
- Srebp1c suppr. compared to vehicle ([2]; three oral doses of 10 mg/kg): D (<0.3)
- response vs control in vivo at 10 mg/kg ([2]; three oral doses of 10 mg/kg): < 30%

Compound: N#Cc1cccc(C#N)c1-c1c(-c2cccc(-c3c(F)cc(CC(=O)O)cc3F)c2)n(S(=O)(=O)c2ccc(C(F)F)cc2)c2ccc(F)cc12 [3/73]
- liver exposure 4 h [1, 3]: B (300 nM to ≤1 μM)
- liver/plasma ratio 4 h [1, 3]: C (30 to ≤100)
- plasma exposure 4 h [1, 3]: D (<100 nM)
- Fasn suppression compared to vehicle ([2]; three oral doses of 10 mg/kg): A (>0.9)
- response vs control in vivo at 10 mg/kg ([2]; three oral doses of 10 mg/kg): < 30%

Compound: N#Cc1ccccc1-c1c(-c2cccc(-c3ccc(C(=O)O)cc3Cl)c2)n(S(=O)(=O)c2ccc(C(F)F)cc2)c2cnccc12 [11/49]
- liver exposure 4 h [1, 4]: C (1 μM to ≤10 μM)
- liver/plasma ratio 4 h [1, 4]: D (>100)
- plasma exposure 4 h [1, 4]: D (<100 nM)
- Fasn suppression compared to vehicle ([2]; three oral doses of 20 mg/kg): C (0.3 to ≤0.6)
- Srebp1c suppr. compared to vehicle ([2]; three oral doses of 20 mg/kg): C (0.3 to ≤0.6)
- response vs control in vivo at 20 mg/kg ([2]; three oral doses of 20 mg/kg): < 30%

Compound: CC(=O)NS(=O)(=O)c1ccc(-c2cccc(-c3c(-c4c(C#N)cccc4C#N)c4cc(F)ccc4n3S(=O)(=O)c3ccc(C(F)F)cc3)c2)c(Cl)c1 [8/8]
- liver exposure 4 h [1, 3]: B (300 nM to ≤1 μM)
- liver/plasma ratio 4 h [1, 3]: B (5 to ≤30)
- plasma exposure 4 h [1, 3]: C (100 nM to <300 nM)
- Srebp1c suppr. compared to vehicle ([2]; three oral doses of 10 mg/kg): D (<0.3)
- response vs control in vivo at 10 mg/kg ([2]; three oral doses of 10 mg/kg): < 30%

Compound: O=C(O)c1ccc(-c2cccc(-c3c(-c4ncccc4C(F)(F)F)c4cc(F)ccc4n3S(=O)(=O)c3ccc(C(F)F)cc3)c2)c(Cl)c1 [11/23]
- liver exposure 4 h [1, 4]: C (1 μM to ≤10 μM)
- liver/plasma ratio 4 h [1, 4]: B (5 to ≤30)
- plasma exposure 4 h [1, 4]: C (100 nM to <300 nM)
- Fasn suppression compared to vehicle ([2]; three oral doses of 20 mg/kg): C (0.3 to ≤0.6)
- response vs control in vivo at 20 mg/kg ([2]; three oral doses of 20 mg/kg): < 30%

Compound: COc1c(C(=O)O)ccc(-c2cccc(-c3c(-c4ccccc4C#N)c4cc(F)ccc4n3S(=O)(=O)c3ccc(C(F)F)cc3)c2)c1Cl [11/27]
- liver exposure 4 h [1, 4]: C (1 μM to ≤10 μM)
- liver/plasma ratio 4 h [1, 4]: C (30 to ≤100)
- plasma exposure 4 h [1, 4]: D (<100 nM)
- Fasn suppression compared to vehicle ([2]; three oral doses of 20 mg/kg): C (0.3 to ≤0.6)
- Srebp1c suppr. compared to vehicle ([2]; three oral doses of 20 mg/kg): A (>0.9)
- response vs control in vivo at 20 mg/kg ([2]; three oral doses of 20 mg/kg): < 30%

Compound: N#Cc1sccc1-c1c(-c2cccc(-c3ccc(C(=O)O)cc3Cl)c2)n(S(=O)(=O)c2ccc(C(F)F)cc2)c2ccc(F)cc12 [11/17]
- liver exposure 4 h [1, 4]: D (>10 μM)
- liver/plasma ratio 4 h [1, 4]: C (30 to ≤100)
- plasma exposure 4 h [1, 4]: C (100 nM to <300 nM)
- Fasn suppression compared to vehicle ([2]; three oral doses of 20 mg/kg): C (0.3 to ≤0.6)
- response vs control in vivo at 20 mg/kg ([2]; three oral doses of 20 mg/kg): < 30%

Compound: N#Cc1cccc(C#N)c1-c1c(-c2cccc(-c3ccc(C(=O)O)cc3F)c2)n(S(=O)(=O)c2ccc(C(F)F)cc2)c2ccc(F)cc12 [11/51]
- liver exposure 4 h [1, 3]: C (1 μM to ≤10 μM)
- liver/plasma ratio 4 h [1, 3]: C (30 to ≤100)
- plasma exposure 4 h [1, 3]: D (<100 nM)
- Srebp1c suppr. compared to vehicle ([2]; three oral doses of 10 mg/kg): D (<0.3)
- response vs control in vivo at 10 mg/kg ([2]; three oral doses of 10 mg/kg): < 30%

Compound: N#Cc1nccnc1-c1c(-c2cccc(-c3cc(F)c(C(=O)O)cc3Cl)c2)n(S(=O)(=O)c2ccc(C(F)F)cc2)c2ccc(F)cc12 [11/11]
- liver exposure 4 h [1, 4]: D (>10 μM)
- liver/plasma ratio 4 h [1, 4]: D (>100)
- plasma exposure 4 h [1, 4]: D (<100 nM)
- Fasn suppression compared to vehicle ([2]; three oral doses of 20 mg/kg): C (0.3 to ≤0.6)
- response vs control in vivo at 20 mg/kg ([2]; three oral doses of 20 mg/kg): < 30%

Compound: N#Cc1cccc(C#N)c1-c1c(-c2cccc([C@H]3CC[C@H](C(=O)O)CC3)c2)n(S(=O)(=O)c2ccc(C(F)F)cc2)c2ccc(F)cc12 [11/62]
- liver exposure 4 h [1, 3]: C (1 μM to ≤10 μM)
- liver/plasma ratio 4 h [1, 3]: B (5 to ≤30)
- plasma exposure 4 h [1, 3]: C (100 nM to <300 nM)
- Srebp1c suppr. compared to vehicle ([2]; three oral doses of 10 mg/kg): D (<0.3)
- response vs control in vivo at 10 mg/kg ([2]; three oral doses of 10 mg/kg): < 30%

Reference: patent publication US20260083704A1, “LXR MODULATORS WITH BICYCLIC CORE MOIETY FOR TREATING DYSLIPIDEMIAS” (OrsoBio, Inc., priority 2022, published 2026)
